From ChEMBL document CHEMBL4118132, “Novel 5-methyl-2-phenylphenanthridium derivatives as FtsZ-targeting antibacterial agents from structural simplification of natural product sanguinarine” (2018)

Key:
Type in all cases: functional
Staphylococcus aureus [1] = experiment: Potency index, ratio of ciprofloxacin MIC to test compound MIC for penicillin-resistant Staphylococcus aureus clinical isolate
Streptococcus pyogenes [2] = experiment: Antibacterial activity against penicillin-resistant Streptococcus pyogenes after 24 hrs by broth microdilution method
Bacillus subtilis [3] = experiment: Antibacterial activity against penicillin-susceptible Bacillus subtilis ATCC 9372 after 24 hrs by broth microdilution method; conditions: ATCC 9372, 24 h
Staphylococcus aureus [4] = experiment: Potency index, ratio of ciprofloxacin MIC to test compound MIC for penicillin-susceptible Staphylococcus aureus ATCC 25923
Staphylococcus aureus [5] = experiment: Potency index, ratio of oxacillin sodium MIC to test compound MIC for penicillin-susceptible Staphylococcus aureus ATCC 25923
[6] = test system: Staphylococcus epidermidis; experiment: Potency index, ratio of ciprofloxacin MIC to test compound MIC for penicillin-resistant Staphylococcus epidermidis clinical isolate
Streptococcus pyogenes [7] = experiment: Potency index, ratio of ciprofloxacin MIC to test compound MIC for penicillin-susceptible Streptococcus pyogenes
Streptococcus pyogenes [8] = experiment: Potency index, ratio of oxacillin sodium MIC to test compound MIC for penicillin-susceptible Streptococcus pyogenes
Bacillus subtilis [9] = experiment: Potency index, ratio of ciprofloxacin MIC to test compound MIC for penicillin-susceptible Bacillus subtilis ATCC 9372
Bacillus pumilus [10] = experiment: Potency index, ratio of ciprofloxacin MIC to test compound MIC for penicillin-susceptible penicillin-susceptible Bacillus pumilus ATCC 63202
Bacillus pumilus [11] = experiment: Potency index, ratio of oxacillin sodium MIC to test compound MIC for penicillin-susceptible penicillin-susceptible Bacillus pumilus ATCC 63202
Staphylococcus aureus [12] = experiment: Bactericidal activity against penicillin-susceptible Staphylococcus aureus ATCC 25923 assessed as bacterial levels at 16 ug/ml after 2 hrs by time-kill assay (reference value: 6.13 to 6.17 log10CFU/ml)
Staphylococcus aureus [13] = experiment: Bactericidal activity against penicillin-susceptible Staphylococcus aureus ATCC 25923 assessed as bacterial levels at 8 ug/ml after 2 hrs by time-kill assay (reference value: 6.13 to 6.17 log10CFU/ml)
Staphylococcus aureus [14] = experiment: Bactericidal activity against penicillin-susceptible Staphylococcus aureus ATCC 25923 assessed as bacterial levels at 8 ug/ml after 4 hrs by time-kill assay (reference value: 6.13 to 6.71 log10CFU/ml)
Staphylococcus aureus [15] = experiment: Bactericidal activity against penicillin-susceptible Staphylococcus aureus ATCC 25923 assessed as bacterial levels at 32 ug/ml after 6 hrs by time-kill assay (reference value: 6.13 to 7.54 log10CFU/ml)
Staphylococcus aureus [16] = experiment: Bactericidal activity against penicillin-susceptible Staphylococcus aureus ATCC 25923 assessed as bacterial levels at 16 ug/ml after 6 hrs by time-kill assay (reference value: 6.13 to 7.54 log10CFU/ml)
Staphylococcus aureus [17] = experiment: Bactericidal activity against penicillin-susceptible Staphylococcus aureus ATCC 25923 assessed as bacterial levels at 8 ug/ml after 6 hrs by time-kill assay (reference value: 6.13 to 7.54 log10CFU/ml)
Staphylococcus aureus [18] = experiment: Bactericidal activity against penicillin-susceptible Staphylococcus aureus ATCC 25923 assessed as bacterial levels at 32 ug/ml after 12 hrs by time-kill assay (reference value: 6.13 to 8.01 log10CFU/ml)
Staphylococcus aureus [19] = experiment: Bactericidal activity against penicillin-susceptible Staphylococcus aureus ATCC 25923 assessed as bacterial levels at 8 ug/ml after 24 hrs by time-kill assay (reference value: 6.13 to 8.34 log10CFU/ml)

SMILES: Cc1cc(-c2ccc(C(F)(F)F)cc2)cc2c3ccccc3c[n+](C)c12.[Cl-]
- Ratio (Staphylococcus aureus [1]): 64
- MIC (Streptococcus pyogenes [2]): 2 µg/mL
- MIC (Bacillus subtilis [3]): 0.06 µg/mL
- Ratio (Staphylococcus aureus [4]): 133
- Ratio (Staphylococcus aureus [5]): 67
- Ratio [6]: 512
- Ratio (Streptococcus pyogenes [7]): 8
- Ratio (Streptococcus pyogenes [8]): 1
- Ratio (Bacillus subtilis [9]): 33
- Ratio (Bacillus pumilus [10]): 133
- Ratio (Bacillus pumilus [11]): 533
- Activity (Staphylococcus aureus [12]): 6 log10CFU/ml
- Activity (Staphylococcus aureus [13]): 6.06 log10CFU/ml
- Activity (Staphylococcus aureus [14]): 6.04 log10CFU/ml
- Activity (Staphylococcus aureus [15]): 0 log10CFU/ml
- Activity (Staphylococcus aureus [16]): 5.42 log10CFU/ml
- Activity (Staphylococcus aureus [17]): 6.07 log10CFU/ml
- Activity (Staphylococcus aureus [18]): 0 log10CFU/ml
- Activity (Staphylococcus aureus [19]): 5.88 log10CFU/ml
